Measurements taken from PubChem BioAssay AID248 (DTP/NCI, 2004).
Inconclusive results and toxic doses are left out. Rule as the data show it: active = T/C of 150% or more; inactive = T/C below 125%.

Test system: L1210 leukemia ip in BDF1 mice, survival T/C
Assay: NCI In Vivo Anticancer Drug Screen. Data for tumor model L1210 Leukemia (intraperitoneal) in B6D2F1 (BDF1) mice
Conditions: endpoint: mean survival time, higher = longer survival
Method in brief: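 Each compound was tested against a transplantable tumor grown in mice. The endpoint was survival, with treated animals benchmarked against vehicle controls as a simple ratio.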

Measured: T/C

O[C@H](c1cc(C(F)(F)F)nc2c(C(F)(F)F)cccc12)[C@@H]1CCCCN1
inactive: dose: 12.5 mg/kg/injection, schedule: Q01DX009 (ip), vehicle: Klucel (hydroxypropylcellulose) (HPC) 94 % of control | dose: 12.5 mg/kg/injection, schedule: Q04DX003 (ip), vehicle: saline 98 % of control | dose: 25.0 mg/kg/injection, schedule: Q01DX009 (ip), vehicle: Klucel (hydroxypropylcellulose) (HPC) 103 % of control | dose: 25.0 mg/kg/injection, schedule: Q04DX003 (ip), vehicle: saline 98 % of control | dose: 50.0 mg/kg/injection, schedule: Q04DX003 (ip), vehicle: saline 97 % of control

O=C(/C=C(/c1ccccc1)P(=O)(c1ccccc1)c1ccccc1)c1ccccc1
inactive: dose: 100.0 mg/kg/injection, schedule: Q01DX009 (ip), vehicle: saline with Tween-80 86 % of control | dose: 200.0 mg/kg/injection, schedule: Q01DX009 (ip), vehicle: saline with Tween-80 89 % of control | dose: 400.0 mg/kg/injection, schedule: Q01DX009 (ip), vehicle: saline with Tween-80 88 % of control

Cc1ccc2[nH]c(C)cc(=O)c2c1
inactive: dose: 2.5 mg/kg/injection, schedule: Q01DX009 (ip), vehicle: saline 109 % of control | dose: 5.0 mg/kg/injection, schedule: Q01DX009 (ip), vehicle: saline 95 % of control | dose: 10.0 mg/kg/injection, schedule: Q01DX001 (ip), vehicle: saline 104 % of control | dose: 10.0 mg/kg/injection, schedule: Q01DX009 (ip), vehicle: saline 106 % of control | dose: 20.0 mg/kg/injection, schedule: Q01DX001 (ip), vehicle: saline 101 % of control | dose: 40.0 mg/kg/injection, schedule: Q01DX001 (ip), vehicle: saline 98 % of control

Cc1cccc([P+](Cc2ccccc2)(c2cccc(C)c2)c2cccc(C)c2)c1
inactive: dose: 15.0 mg/kg/injection, schedule: Q01DX001 (ip), vehicle: carboxymethylcellulose (CMC) 90 % of control
